Drawing on ChEMBL document CHEMBL4431373, “Investigation of Proposed Activity of Clarithromycin at GABAA Receptors Using [(11)C]Flumazenil PET” (ACS Med Chem Lett, 2016), this text covers Activity, Ki and inhibition for two compounds.

SMILES strings stand for the structures. Active and inactive are the calls of the source. The rule behind the calls is not given here.

Usually Ki stands for a dissociation constant, usually derived from enzyme kinetics or from competition with a known ligand. The term inhibition denotes the relative decrease from the control value, in per cent.

In experiment [1] the test system is Rhesus monkey. Kind of experiment: In vivo displacement of [11C]FMZ from rhesus monkey GABA-A receptor at 0.5 mg/kg, iv after 50 to 90 mins by PET analysis. The conditions noted are these: Macaca mulatta. It counts as functional, organism-based.
The target in experiment [2] is GABA-A receptor; anion channel. The experiment can be described thus: Displacement of [3H]FMZ from GABA-A receptor in rat brain after 30 mins by autoradiography. In kind it is tissue-based. On the technique in general: Displacement assays read how much labelled ligand stays bound in the presence of the test substance.
Experiment [3] deals with Rhesus monkey. Kind of experiment: In vivo displacement of [11C]FMZ from rhesus monkey GABA-A receptor assessed late distribution volume ratio to early distribution volume ratio of […] at 7 mg/kg, iv by Logan plot analysis (reference value: 115 to 121 %). In kind it is functional, Macaca mulatta.
The target of experiment [4] is T1, GABA-A receptor; anion channel (Homo sapiens) (UniProt P14867+P47870+P18507+P28472+P48169+Q99928+Q9UN88+P34903+O00591+O14764+Q8N1C3+P18505+P78334+P47869+P31644+Q16445). Kind of experiment: Negative allosteric modulation of GABA-A receptor (unknown origin) at 3 uM by whole cell patch clamp assay.
In experiment [5] the test system is Rhesus monkey. The experiment can be described thus: In vivo displacement of [11C]FMZ from rhesus monkey GABA-A receptor assessed as late distribution volume ratio to early distribution volume ratio of […] at 3.5 mg/kg, iv by Logan plot analysis (reference value: 115 to 121 %). In kind it is functional, Macaca mulatta.
The target in experiment [6] is T1, GABA-A receptor; anion channel (Homo sapiens). The experiment can be described thus: Negative allosteric modulation of GABA-A receptor (unknown origin) at 300 uM by whole cell patch clamp assay. Background: The patch-clamp technique gives a direct electrical read-out from membranes.
For experiment [7], the target named is GABA-A receptor; anion channel (Rattus norvegicus) (UniProt O09028+P15431+P18506+P18508+P19969+P20236+P23574+P23576+P28471+P28473+P30191+P62813+P63079+P63138+Q91ZM7+Q9ES14). The note with it: Brain, 10 uM.
Description: Displacement of [3H]FMZ from GABA-A receptor in rat brain at 10 uM preincubated for 30 mins followed by FMZ addition measured up to 16 mins
The test system of experiment [8] is Rhesus monkey. Kind of experiment: In vivo displacement of [11C]FMZ from rhesus monkey GABA-A receptor at 3.5 mg/kg, iv after 50 to 90 mins by PET analysis. It counts as functional, organism-based. The conditions noted are these: Macaca mulatta.
The subject of experiment [9] is Rhesus monkey. The experiment can be described thus: In vivo displacement of [11C]FMZ from rhesus monkey GABA-A receptor at 7 mg/kg, iv after 50 to 90 mins by PET analysis. In kind it is functional, organism-based. The conditions noted are these: Macaca mulatta.

For the compound `CCOC(=O)c1ncn2c1CN(C)C(=O)c1cc(F)ccc1-2`, the result in the experiment on Rhesus monkey [1] was Active.
In experiment [2], `CC[C@H]1OC(=O)[C@H](C)[C@@H](O[C@H]2C[C@@](C)(OC)[C@@H](O)[C@H](C)O2)[C@H](C)[C@@H](O[C@@H]2O[C@H](C)C[C@H](N(C)C)[C@H]2O)[C@](C)(OC)C[C@@H](C)C(=O)[C@H](C)[C@@H](O)[C@]1(C)O` [CLARITHROMYCIN] returned a Ki of more than 10 µM. The figures for the Activity in the experiment on Rhesus monkey [3] and with Rhesus monkey [5] were 89 - 186% and 108 - 131%, respectively. The inhibition was found to be 18% in experiment [4] and 45% in experiment [6]. In addition, the inhibition entry (in experiment [7]; with Rhesus monkey [8]; in the experiment on Rhesus monkey [9]) was “inactive” throughout.
